From EPA's ToxValDB 9.5 (doi:10.2903/j.efsa.2012.2879) come the findings set out here.

Each structure is given as a SMILES string. Values after ≈ are worked out from the molar mass of the structure shown. Some results are limits rather than exact numbers.

The term NOAEL denotes the highest dose or exposure tested at which no adverse effect was seen.

Series [1] concerns Mus musculus.
Series [2] deals with Daphnia magna. As to conditions: chronic/long-term; duration: 21 days; reproduction.
Series [3] relates to Tagia sp.
The subject of series [4] is Rattus norvegicus.
Series [5] deals with Oncorhynchus mykiss.
Series [6] has as its system Apis mellifera. Conditions: acute; duration: 48 hours; dermal; mortality.
For series [7], the system named is Colinus virginianus. Conditions: acute, oral, mortality.
Series [8] has as its system Anas platyrhynchos.

Regarding `Cc1cc(C)c(C2=C(OC(=O)CC(C)(C)C)C3(CCCC3)OC2=O)c(C)c1` [Spiromesifen], the NOAEL in series [1] (chronic, duration: 18 months) was determined as 3 mg/kg-day; in series [1] (subchronic, duration: 90 days, oral, clinical chemistry) it was 3 mg/kg-day; in series [4] (acute, neurology), 2000 mg/kg-day. Also, the NOEC in series [2] was 0.00025 mg/L; in series [3] (chronic/long-term, duration: 56 days, reproduction), 4.32 mg/kg; in series [4] (reproduction developmental, reproduction), 30 mg/kg-day; in series [5] (chronic/long-term, duration: 97 days), 0.00473 mg/L; in series [8] (reproductive, reproduction) it was 229 mg/kg. Besides, the LC50 in series [3] (acute, duration: 14 days, mortality) is > 1000 mg/kg; in series [5] (acute, duration: 96 hours, mortality) it was 0.016 µg/mL (≈ 0.0432 µM); in series [7] (diet), > 5000 mg/kg; in series [8] (short-term, oral, feed, mortality), > 5000 mg/kg. In addition, the LD50 in series [4] (acute, oral, mortality) is > 2500 mg/kg; in series [6], > 200 µg/piece; in series [7], > 2000 mg/kg.
